For experiment [1], the system named is rabbit antiserum after immunization with catalase. Briefly: Microtiter complement-fixation test. It counts as binding. Conditions: initial and booster sera. As to the method:
(§1) Immunization - New Zealand, white adult female rabbits were immunized by the intravenous route with a 1.5 mg/ml. stock solution of beef liver catalase for a period of 4 weeks by which time it received a total of 55 mg. of catalase. Rabbits were bled by cardiac puncture 7 and 14 days after completion of the immunization schedule. Approximately 1 month later, rabbits were injected with 5 mg. of the appropriate antigen and bled by cardiac puncture 1 week after receiving the booster injection.
(§2) Rabbit antisera obtained after initial or booster immunization were assayed in vitro for precipitating (1) and complement fixing activities (2,3). Each antiserum (undiluted, 1/10, 1/50) was set up in gel diffusion plates (1.0% Noble Agar in physiological saline with 1.0% azide added as preservative) against both catalase and PEG-HTA-catalase solutions (concentrations ranging from 1000γ/ml. to 5γ/ml). Plates were incubated at room temperature for 48 hours and at 4° C. for 3-4 days. Complement fixing activity of the heat inactivated, sheep red blood cell absorbed antisera was determined using the Microtiter Complement-fixation test (Cooke Engineering Co., Alexandria, Virginia). Antisera were run 1:1 and 1:10 dilutions against catalse and PEG-HTA-catalase dilutions ranging from 1000γ/ml. down to 15γ/ml. Plates were read for presence or absence of hemolysis following incubation at 37° C. for 30 minutes.

The test system is the same in experiment [2]. The experiment can be described thus: Gel diffusion test for precipitating antibodies. It counts as binding. As to conditions: antiserum against native catalase, tested undiluted and 1/10. As to the method: as §1, §2
For experiment [3], the system named is rats made diabetic utilizing alloxan injections. Briefly: PEG insulin rat assay, alloxan diabetic rats. The arrangement: % Drop Over Control: concentration or dose not given beside the values. It counts as in vivo.
Experiment [4] in a line: Insulin activity (animal assay). As to conditions: in vivo.
In the next experiment the test system is test rabbits. Briefly: PEG-HTA-insulin assay, blood sugar levels in test rabbits (Glucostat method). In kind it is in vivo, rabbit. Conditions: after 3 hours, same amount of insulin injected. As to the method: Preliminary insulin and PEG-HTA-insulin containing the same amount of insulin were injected into test rabbits and blood sugar levels measured by the "Glucostat" method (Worthington Biochemical Corporation, Freehold, N. J.).

In another experiment the test system is insulin antiserum. The experiment can be described thus: PEG-insulin immunoassay (radioimmunoassay). In kind it is binding. As to the method: PEG-HTA-Insulin was prepared in accordance with Example II and tested for antigenic activity by the method of […]
[5] abbreviates: intravenous, 8 hrs (animals fed after 5 hrs).

Consider four substances from patent publication US4179337A, “Non-immunogenic polypeptides” (priority 1977, dated 1979).

As to “Hydrogen Peroxide: Hydrogen-Peroxide Oxidoreductase (1.11.1.6; "Catalase")-2-PEG-4-Hydroxy-1,3,5-Triazin-6-yl Conjugate [modified catalase]”, the complement-fixing activity entry in experiment [1] was “negative”. Moreover, the “precipitating antibodies, gel diffusion” value in experiment [2] is reported as “no evidence of any cross-reactions”.
On the same counts, the results for “Hydrogen-peroxide: hydrogen-peroxide oxidoreductase [Unmodified catalase]” are “positive” and “positive”.
Consider “Insulin PEG-4-Hydroxy-1,3,5-Triazin-6-yl Conjugate [PEG HTA Insulin (pH 9.2)]”, for which the “Blood Glucose Level” value in experiment [3] (intravenous, 0 hrs (initial level)) is 305 mg/100 ml; in experiment [3] (intravenous, 2 hrs), 72.5 mg/100 ml; in experiment [3] (intravenous, 4 hrs), 101.5 mg/100 ml; in experiment [3] (setting [5]) it was 230 mg/100 ml. The “% Drop Over Control” value in experiment [3] (intravenous, 2 hrs) came out at 76.2%; in experiment [3] (intravenous, 4 hrs), 66.7%; in experiment [3] (setting [5]) it was 24.6%. For the same substance, the “Drop Over Initial Level” value in experiment [3] (intravenous, 2 hrs) was found to be 232 mg/100 ml; in experiment [3] (intravenous, 4 hrs), 203.5 mg/100 ml; in experiment [3] (setting [5]), 75 mg/100 ml.
insulin [Unmodified Insulin]: the “Insulin Activity (animal assay)” value in experiment [4] is listed as 137 μ units/ml. Besides, the Blood Glucose Level is listed as 20 % of normal in the experiment on test rabbits; 410 mg/100 ml in experiment [3] (intramuscularly, 0 hrs (initial level)); 295 mg/100 ml in experiment [3] (intramuscularly, 1 hr); 270 mg/100 ml in experiment [3] (intramuscularly, 2 hrs); 290 mg/100 ml in experiment [3] (intramuscularly, 4 hrs); 400 mg/100 ml in experiment [3] (intramuscularly, 6 hrs). For the same substance, the “Insulin Antibodies Activity (radioimmunoassay)” value in the experiment with insulin antiserum was determined as 127 μ units/ml. Further, the “% Drop Over Control” value is reported as 32.9% in experiment [3] (intramuscularly, 1 hr); 34.1% in experiment [3] (intramuscularly, 2 hrs); 29.2% in experiment [3] (intramuscularly, 4 hrs); 02.4% in experiment [3] (intramuscularly, 6 hrs). For the same substance, the “Drop Over Initial Level” value amounted to 135 mg/100 ml in experiment [3] (intramuscularly, 1 hr); 140 mg/100 ml in experiment [3] (intramuscularly, 2 hrs); 120 mg/100 ml in experiment [3] (intramuscularly, 4 hrs); 10 mg/100 ml in experiment [3] (intramuscularly, 6 hrs).
